Experimental data from US11472791B2 (Incyte Corporation, priority 2019, dated 2022).

These compounds were tested against CDK2/Cyclin E1 (Homo sapiens (Human), UniProt P24941) (assay: CDK2/Cyclin E1 HTRF enzyme activity assay). Conditions: 1 mM ATP.
Type: biochemical
Procedure: Assays are conducted in white 384-well polystyrene plates in a final reaction volume of 8 μL. […] HTRF signals are read after 1 hour at room temperature on a PHERAstar FS plate reader (BMG Labtech). Data is analyzed with IDBS XLFit and GraphPad Prism 5.0 software using a three or four parameter dose response curve to determine IC50 for each compound.

| SMILES | IC50 [nM] |
| --- | --- |
| [2H]C([2H])([2H])NCc1ccc(-n2cc(-c3nc(NC4CCN(S(=O)(=O)c5ccn(C)n5)CC4)ncc3C#N)cn2)c(Cl)c1 [Example 142, 4-(1-(2-Chloro-4-(((methyl-d3)amino)methyl)phenyl)-1H-pyrazol-4-yl)-2-((1-((1-methyl-1H-pyrazol-3-yl)sulfonyl)piperidin-4-yl)amino)pyrimidine-5-carbonitrile] | < 50 |
| CS(=O)(=O)N1CCC(Nc2ncc(C#N)c(-c3cnn(-c4ccc(CNC5CCN(S(C)(=O)=O)C5)cc4Cl)c3)n2)CC1 (racemic) [Example 198, (±)-4-(1-(2-Chloro-4-(((1-(methylsulfonyl)pyrrolidin-3-yl)amino)methyl)phenyl)-1H-pyrazol-4-yl)-2-((1-(methylsulfonyl)piperidin-4-yl)amino)pyrimidine-5-carbonitrile] | < 50 |
| CC(C)(O)Cn1cc(-c2nc(NC3CCN(S(=O)(=O)C4CCC(N5CCC5)CC4)CC3)ncc2C(F)(F)F)cn1 (single isomer, unassigned) [90 (peak 1), 1-(4-(2-((1-((4-(Azetidin-1-yl)cyclohexyl)sulfonyl)piperidin-4-yl)amino)-5-(trifluoromethyl)pyrimidin-4-yl)-1H-pyrazol-1-yl)-2-methylpropan-2-ol] | < 50 |
| [2H]C(NC([2H])([2H])[2H])c1ccc(-n2cc(-c3nc(NC4CCN(S(=O)(=O)CC)CC4)ncc3C#N)cn2)c(Cl)c1 (stereo not shown) [Example 140, 4-(1-(2-Chloro-4-(((methyl-d3)amino)methyl-d)phenyl)-1H-pyrazol-4-yl)-2-((1-(ethylsulfonyl)piperidin-4-yl)amino)pyrimidine-5-carbonitrile] | < 50 |
| Cn1cnc(S(=O)(=O)N2CCC(Nc3ncc(C(F)(F)F)c(-c4cnn([C@H]5CC[C@H](O)CC5)c4)n3)CC2)c1 [Example 26, trans-4-(4-(2-((1-((1-Methyl-1H-imidazol-4-yl)sulfonyl)piperidin-4-yl)amino)-5-(trifluoromethyl)pyrimidin-4-yl)-1H-pyrazol-1-yl)cyclohexan-1-ol] | < 50 |
| CC(C)(O)Cn1cc(-c2nc(NC3CCN(S(=O)(=O)CCCN4CCCC4)CC3)ncc2C#N)cn1 [Example 214, 4-(1-(2-Hydroxy-2-methylpropyl)-1H-pyrazol-4-yl)-2-((1-((3-(pyrrolidin-1-yl)propyl)sulfonyl)piperidin-4-yl)amino)pyrimidine-5-carbonitrile] | < 50 |
| CS(=O)(=O)N1CCC(Nc2ncc(C#N)c(-c3cnn(-c4ccc(CN[C@@H]5CCC[C@H]5O)cc4Cl)c3)n2)CC1 [Example 186, 4-(1-(2-Chloro-4-((((1R,2R)-2-hydroxycyclopentyl)amino)methyl)phenyl)-1H-pyrazol-4-yl)-2-((1-(methylsulfonyl)piperidin-4-yl)amino)pyrimidine-5-carbonitrile] | < 50 |
| CCNCc1ccc(-n2cc(-c3nc(NC4CCN(S(C)(=O)=O)CC4)ncc3C#N)cn2)c(Cl)c1 [Example 115, 4-(1-(2-Chloro-4-((ethylamino)methyl)phenyl)-1H-pyrazol-4-yl)-2-((1-(methylsulfonyl)piperidin-4-yl)amino)pyrimidine-5-carbonitrile] | < 50 |
| CNCc1ccc(-n2cc(-c3nc(N[C@H]4CCN(S(=O)(=O)C5CCC5)C[C@H]4F)ncc3C#N)cn2)c(Cl)c1 [Example 121, 4-(1-(2-Chloro-4-((methylamino)methyl)phenyl)-1H-pyrazol-4-yl)-2-(((3R,4S)-1-(cyclobutylsulfonyl)-3-fluoropiperidin-4-yl)amino)pyrimidine-5-carbonitrile] | < 50 |
| CCN1CCN(Cc2ccc(-n3cc(-c4nc(NC5CCN(S(=O)(=O)c6cn(C)cn6)CC5)ncc4Cl)cn3)c(C)c2)CC1 [Example 245, 5-Chloro-4-(1-(4-((4-ethylpiperazin-1-yl)methyl)-2-methylphenyl)-1H-pyrazol-4-yl)-N-(1-((1-methyl-1H-imidazol-4-yl)sulfonyl)piperidin-4-yl)pyrimidin-2-amine] | < 50 |
| Cc1nc(CNC(C)(C)C2CC2)ccc1-n1cc(-c2nc(NC3CCN(S(C)(=O)=O)CC3)ncc2C#N)cn1 [Example 263, 4-(1-(6-(((2-Cyclopropylpropan-2-yl)amino)methyl)-2-methylpyridin-3-yl)-1H-pyrazol-4-yl)-2-((1-(methylsulfonyl)piperidin-4-yl)amino)pyrimidine-5-carbonitrile] | < 50 |
| CNCc1ccc(-n2cc(-c3nc(NC4CCN(S(=O)(=O)c5cn(C)cn5)CC4)ncc3C(F)(F)F)cn2)c(C)n1 [Example 268, N-(1-((1-Methyl-1H-imidazol-4-yl)sulfonyl)piperidin-4-yl)-4-(1-(2-methyl-6-((methylamino)methyl)pyridin-3-yl)-1H-pyrazol-4-yl)-5-(trifluoromethyl)pyrimidin-2-amine] | < 50 |
| N#Cc1cnc(NC2CCN(S(=O)(=O)c3ccccn3)CC2)nc1-c1cnn(CC(F)(F)F)c1 [Example 39, 2-((1-(Pyridin-2-ylsulfonyl)piperidin-4-yl)amino)-4-(1-(2,2,2-trifluoroethyl)-1H-pyrazol-4-yl)pyrimidine-5-carbonitrile] | < 50 |
| CC(C)(O)Cn1cc(-c2nc(NC3CCN(S(=O)(=O)CCCCN4CCCC4)CC3)ncc2C#N)cn1 [Example 217, 4-(1-(2-Hydroxy-2-methylpropyl)-1H-pyrazol-4-yl)-2-((1-((4-(pyrrolidin-1-yl)butyl)sulfonyl)piperidin-4-yl)amino)pyrimidine-5-carbonitrile] | < 50 |
| Cc1cc(CN2CCN(CC3CC3)CC2)ccc1-n1cc(-c2nc(NC3CCN(S(=O)(=O)c4cn(C)cn4)CC3)ncc2Cl)cn1 [Example 246, 5-Chloro-4-(1-(4-((4-(cyclopropylmethyl)piperazin-1-yl)methyl)-2-methylphenyl)-1H-pyrazol-4-yl)-N-(1-((1-methyl-1H-imidazol-4-yl)sulfonyl)piperidin-4-yl)pyrimidin-2-amine] | < 50 |
| CCN(CC)CCCCS(=O)(=O)N1CCC(Nc2ncc(C(F)(F)F)c(-c3cnn(CC(C)(C)O)c3)n2)CC1 [Example 79, 1-(4-(2-((1-((4-(Diethylamino)butyl)sulfonyl)piperidin-4-yl)amino)-5-(trifluoromethyl)pyrimidin-4-yl)-1H-pyrazol-1-yl)-2-methylpropan-2-ol] | < 50 |
| Cn1cnc(S(=O)(=O)N2CCC(Nc3ncc(C(F)(F)F)c(-c4cnn(CC(F)F)c4)n3)CC2)c1 [Example 31, 4-(1-(2,2-Difluoroethyl)-1H-pyrazol-4-yl)-N-(1-((1-methyl-1H-imidazol-4-yl)sulfonyl)piperidin-4-yl)-5-(trifluoromethyl)pyrimidin-2-amine] | < 50 |
| C[C@]1(O)C[C@@H](NCc2ccc(-n3cc(-c4nc(NC5CCN(S(=O)(=O)C6CC6)CC5)ncc4C#N)cn3)c(Cl)c2)C1 [Example 285, 4-(1-(2-Chloro-4-((((1s,3s)-3-hydroxy-3-methylcyclobutyl)amino)methyl)phenyl)-1H-pyrazol-4-yl)-2-((1-(cyclopropylsulfonyl)piperidin-4-yl)amino)pyrimidine-5-carbonitrile] | < 50 |
| Cc1cc(CN2CCNCC2)ccc1-n1cc(-c2nc(NC3CCN(S(=O)(=O)c4cn(C)cn4)CC3)ncc2C(F)(F)F)cn1 [Example 228, N-(1-((1-Methyl-1H-imidazol-4-yl)sulfonyl)piperidin-4-yl)-4-(1-(2-methyl-4-(piperazin-1-ylmethyl)phenyl)-1H-pyrazol-4-yl)-5-(trifluoromethyl)pyrimidin-2-amine] | < 50 |
| CCN1CCN(Cc2ccc(-n3cc(-c4nc(N[C@H]5CCN(S(=O)(=O)c6cn(C)cn6)C[C@H]5C)ncc4C(F)(F)F)cn3)c(C)n2)CC1 [Example 256, 4-(1-(6-((4-Ethylpiperazin-1-yl)methyl)-2-methylpyridin-3-yl)-1H-pyrazol-4-yl)-N-((3R,4S)-3-methyl-1-((1-methyl-1H-imidazol-4-yl)sulfonyl)piperidin-4-yl)-5-(trifluoromethyl)pyrimidin-2-amine] | < 50 |
| CC(C)(O)Cn1cc(-c2nc(N[C@H]3CCN(S(=O)(=O)C4CC4)C[C@H]3F)ncc2C(F)(F)F)cn1 [Example 57, 1-(4-(2-(((3R,4S)-1-(Cyclopropylsulfonyl)-3-fluoropiperidin-4-yl)amino)-5-(trifluoromethyl)pyrimidin-4-yl)-1H-pyrazol-1-yl)-2-methylpropan-2-ol] | < 50 |
| CCNCc1ccc(-n2cc(-c3nc(NC4CCN(S(=O)(=O)c5cn(C)cn5)CC4)ncc3C(F)(F)F)cn2)c(C)n1 [Example 269, 4-(1-(6-((Ethylamino)methyl)-2-methylpyridin-3-yl)-1H-pyrazol-4-yl)-N-(1-((1-methyl-1H-imidazol-4-yl)sulfonyl)piperidin-4-yl)-5-(trifluoromethyl)pyrimidin-2-amine] | < 50 |
| CN1CCN(Cc2ccc(-n3cc(-c4nc(NC5CCN(S(=O)(=O)c6cn(C)cn6)CC5)ncc4Cl)cn3)c(Cl)c2)CC1 [Example 108, 5-Chloro-4-(1-(2-chloro-4-((4-methylpiperazin-1-yl)methyl)phenyl)-1H-pyrazol-4-yl)-N-(1-((1-methyl-1H-imidazol-4-yl)sulfonyl)piperidin-4-yl)pyrimidin-2-amine] | < 50 |
| [2H]C([2H])([2H])NCc1ccc(-n2cc(-c3nc(NC4CCN(S(=O)(=O)c5ccn(C)n5)CC4)ncc3C(F)(F)F)cn2)c(C)c1 [Example 131, N-(1-((1-Methyl-1H-pyrazol-3-yl)sulfonyl)piperidin-4-yl)-4-(1-(2-methyl-4-(((methyl-d3)amino)methyl)phenyl)-1H-pyrazol-4-yl)-5-(trifluoromethyl)pyrimidin-2-amine] | < 50 |
| C[C@]1(O)CC[C@@H](NCc2ccc(-n3cc(-c4nc(NC5CCN(S(=O)(=O)C6CC6)CC5)ncc4C#N)cn3)c(Cl)c2)CC1 [Example 283, 4-(1-(2-Chloro-4-((((1s,4s)-4-hydroxy-4-methylcyclohexyl)amino)methyl)phenyl)-1H-pyrazol-4-yl)-2-((1-(cyclopropylsulfonyl)piperidin-4-yl)amino)pyrimidine-5-carbonitrile] | < 50 |
